From patent publication US20250129101A1, “Compound, Pharmaceutical Composition Comprising the Same and Method for Treating Cancer Using the Same” (NATIONAL TSING HUA UNIVERSITY, priority 2023, published 2025)
Where two headings read alike, the source gives them in different places. One block for each compound: values may come before it.

What was measured:
KIF2C = target: T1, KIF2C (Homo sapiens, UniProt Q99661); test: In vitro validation: KIF2C kinesin activity, malachite green-based phosphate colorimetric assay; type: biochemical
T1 construct: KIF2C (216-598 a.a.); 6xHis (C); made in house; host or cells: E. coli BL21 (DE3), pET-28a
Summary of the method: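 KIF2C sN+M construct (aa 216-598, C-terminal 6×His, E. coli-expressed) ATPase activity with microtubules from porcine brain tubulin or HEK293 (293Fs) cells in BRB80 (80 mM PIPES pH 6.8, 1 mM GTP, 10% DMSO), 37° C for 2 hr. Released phosphate detected by malachite green reagent, 10 min, A650.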

KIF2B = target: T2, KIF2B (Homo sapiens, UniProt Q8N4N8); test: In vitro kinesin assay, KIF2B; type: biochemical; conditions: 50 μM (FIG. 4I)
T2 construct: KIF2B (171-553 a.a.); 6xHis (C); made in house; host or cells: E. coli BL21 (DE3), pET-28a
Description: (§1) In vitro kinesin activity was measured using malachite green-based phosphate colorimetric assay (BioVision). […] The microtubules from porcine brain tubulin (Cytoskeleton) or purified from HEK293 cells in Free-style medium (293Fs) were dissolved in the BRB80 buffer (80 mM PIPES pH 6.8, 1 mM EGTA, 1 mM MgCl2, 1 mM GTP, 1 mM DTT, and 10% DMSO) at 37° C. for 2 hr. Phosphates released from kinesin-mediated ATP hydrolysis was measured by adding 30 μL of the phosphate colorimetric reagent (BioVision), incubated for 10 min, and then measured with absorbance at 650 nm.
(§2) Constructs of sN+M regions of KIF2C (216-598 a.a.), KIF2A (181-562 a.a.) and KIF2B (171-553 a.a.) with C-terminal 6×His tag were subcloned into pET-28a vector and expressed in BL21 (DE3) E. coli cells (Novartis) cultured in Luria-Bertani medium supplemented with 50 ug/mL kanamycin at 37° C. After induction with 0.8 mM IPTG for 18 hr at 20° C., the cells were pelleted by centrifugation at 6000 rpm for 30 min at 10° C. The collected pellets were resuspended in 30 mL of buffer A (20 mM Tris-HCl pH 7.5, 500 mM NaCl, 10 mM imidazole, 1% CHAPS, and 1 mM PMSF) and next subjected to a high-pressure homogenizer (EmulsiFlex-C3) for cell lysis. After removing the cell debris by centrifugation at 13000 rpm for 30 min at 10° C., the recombinant Kinesin-13 in the supernatant was purified using nickel affinity chromatography. […]

[1] = tested on: HeLa cells expressing H2B-mCherry and eGFP-tubulin; test: Live-cell imaging of intracellular microtubule distribution; type: cell-based
Description: For the microtubule distribution analysis, HeLa cell line stably expressing H2B-mCherry and eGFP-tubulin (a kind gift from Anthony A. Hyman, Max-Planck-Institute for Molecular Cell Biology and Genetics, Dresden, Germany) were treated with KIF2C inhibitors (10 μM DHTP or 10 μM 7S9) during imaging. Live-cell imaging was conducted on a Nikon T1 inverted fluorescence microscope (Nikon) with a 60× oil objective (Nikon), a Prime camera (Photometrics), and 37° C., 5% CO2 heat stage (Live Cell Instrument). Microtubule morphological changes were imaged at 3-min intervals. Images were obtained using ImageJ software processed with Gaussian Blur to remove the noise.

MDA-MB-231 cells = test: Cell validation: cytotoxicity in MDA-MB-231 cells (CellTiter-Glo); type: cell-based
Summary of the method: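 MDA-MB-231 cells were seeded at 2000 cells/well and exposed to compounds for the specified number of days. Medium was then replaced with a 1:1 CellTiter-Glo reagent/serum-supplemented DMEM mix for 10 min, and viability was read as luminescence, proportional to living cell number.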

[2] = tested on: MDA-MB-231 R, MDA-MB-231 S, 4T1 S1, R4, and R8 cells; test: Cell viability of indicated cell lines, DHTP or 7S9 for 72 hr; type: cell-based; conditions: MDA-MB-231 R
Description: (§3) The cancer cells were cultured in a 96-well plate at a confluence of 1000-2000 cells/well with indicated drugs for specific days. When the time was up, the culture medium in the plate was aspirated and replaced with a prepared CellTiter-Glo reagent/DMEM mixture (1:1 mix of CellTiter-Glo reagent and serum-supplemented DMEM). After incubation for 10 min, the luminescence (proportional to the number of living cells) was measured with an ELISA plate reader to determine the cell viability.

4T1 cells [3] = test: Flow cytometry analysis of cell membrane penetration ability; type: cell-based, mouse; conditions: 2 hr of drug treatment
Description: To quantify the cell membrane penetration ability of different DHTP analogs, 4T1 cells were collected by trypsin after 2 hr of drug treatment and then transferred into microcentrifuge tubes. 4T1 cells were then resuspended into the FACS buffer (1% FBS, 2 mM EDTA, and 0.05% NaN3 in PBS). After two times of FACS buffer rinsing, these samples were detected by flow cytometry (Cyto FLEX™ FLOW Cytometer). The KO525 (405 nm laser; 525 nm filter) channel was used to detect DHTP and 7S9.

KIF2A = target: T3, KIF2A (Homo sapiens, UniProt O00139); test: In vitro kinesin assay, KIF2A; type: biochemical; conditions: 50 μM (FIG. 4I)
T3 construct: KIF2A (181-562 a.a.); 6xHis (C); made in house; host or cells: E. coli BL21 (DE3), pET-28a
Description: as §1, §2

4T1 S1 cells [4] = test: Time-lapse imaging of mitotic progression, 4T1 S1 cells; type: cell-based, mouse; conditions: paclitaxel (400 nM, FIG. 6D)
Description: To investigate the role of KIF2C in cell cycle progression, 4T1 cells were cultured in the 4-well chamber slide with about 50% confluence. The culture medium was replaced with a CO2-independent medium (Gibco) supplemented with 10% fetal bovine serum (Biological Industries) and 1% penicillin-streptomycin (Biowest). Then, each well of the chamber slide was treated with indicated drugs, such as DMSO, KIF2C inhibitors, or chemotherapy drugs. After that, the chamber slide was maintained in the microscope stage incubator with the supplement of humidified air with 5% CO2 at 37° C. Multiple-positional time-lapse imaging was performed using an automated Leica DM16000 inverted microscope equipped with HCX PL FL 20×/0.4 and EMCCD camera (Andor Luca R, Belfast, UK). Sequential differential interference contrast (DIC) images of cells obtained at indicated intervals were further analyzed using Metamorph software (Molecular Devices).

4T1 R4 = test: In vivo tumor growth inhibition, 4T1 R4 syngeneic model; set-up: species or system mouse; conditions: R4 tumors, BALB/c mice, paclitaxel 15 mg/kg intraperitoneally, 5on/2off two cycles
Description: (§4) The mice were housed at the National Health Research Institute (NHRI) Animal Center in accordance with the Institutional Animal Care and Use Committee procedures and guidelines. The 4T1-derived cells, including 4T1, 4T1 R4, and 4T1 R8, used for implantation were harvested during log phase growth and resuspended in phosphate-buffered saline. Each mouse was injected s.c. in the right flank with 5×10^5 cells. After tumor size reached 60-100 mm 3 (D1), mice were divided into groups and received treatment with vehicle or different compounds alone or in combinations. Tumor size, in mm 3, was measured twice per week and calculated from Tumor volume=(w 2×1)/2, where w=width and 1=length in mm of the tumor. The values of tumor size were expressed as mean±SEM.

MDA-MB-231 R = test: Cell viability assay, chemoresistant MDA-MB-231 R cells; type: cell-based; conditions: MDA-MB-231 R versus S cells, 72 hr paclitaxel
Description: as §3
(§5) The expression levels of KIF2A, KIF2B, and KIF2C in these cell lines were compared using Western blotting.

4T1 cells [5] = test: In vivo tumor growth inhibition, 4T1 syngeneic model; set-up: species or system mouse; conditions: 4T1 tumors, BALB/c mice, paclitaxel 5 mg/kg intraperitoneally, 5on/2off two cycles
Description: as §4

4T1 R4 cells = test: Cell viability assay, 4T1 R4 cells; type: cell-based, mouse
Description: (§6) MCF-7, MDA-MB-231, MDA-MB-468, Hs578T, 4T1, and HeLa cell lines stably expressing H2B-mCherry and eGFP-tubulin (kindly provided by Dr. Anthony A. Hyman, Max-Planck-Institute for Molecular Cell Biology and Genetics, Dresden, Germany) were cultured in high-glucose Dulbecco's Modified Eagle Medium (DMEM). SK-BR-3 cells were cultured in McCoy's Modified 5a Medium. Hs578T cells were cultured in high-glucose DMEM supplemented with an additional 0.01 mg/mL bovine insulin. […] All mentioned media were supplemented with 10% fetal bovine serum (Gibco) and 1% Penicillin/Streptomycin (Corning), and cells were incubated at 37° C. in a humidified atmosphere containing 5% CO2. HEK293 cells were cultured in HE300 medium (GMEP incorporated, Japan) and maintained in suspension culture with 125 rpm and 8% CO2.
as §3

4T1 S1 cells [6] = test: Colony formation assay, 4T1 S1 cells; type: cell-based, mouse; conditions: 400 nM paclitaxel
Description: To assess the long-term survival of breast cancer cell lines following the treatment of KIF2C knockdown or inhibition, the cells trypsinized into single-cell suspension were homogeneously seeded in 6-well cell culture plates at a density of 5000 cells per dish, supplemented with 2× complete medium (50% 4×DMEM, 20% FBS, 2% penicillin-streptomycin, ddH2O, and 2× glutaMAX™), agarose (0.6% for bottom agar layer; 0.3% for top cell layer), ddH2O, and DMEM. After incubation for 24 hr, cells were treated with indicated drugs, such as DMSO, KIF2C inhibitors, or chemotherapy drugs, and then cultured at 37° C. incubator in an atmosphere of humidified air with 5% CO2 for a further 14-30 days. When the cell colonies grew to appropriate sizes, the culture mediums were replaced with PBS for washing. After that, the plates were stained with 10% crystal violet and analyzed using Image J.

4T1 R8 cells = test: Cell viability assay, 4T1 R8 cells; type: cell-based, mouse
Description: as §6, §3

4T1 S1 cells [7] = test: Cell viability assay, 4T1 S1 cells; type: cell-based; conditions: Mus musculus, 72 hr, read-out: IC50, single treatment
Description: as §6, §3

4T1 R cells = test: Cell viability assay, chemoresistant 4T1 R cells; type: cell-based, mouse; conditions: 4T1 R versus S cells, 72 hr paclitaxel
Description: as §3, §5

[8] = 72 hr, MTA with 2 μM 7S9, read-out: IC50 (nM), Combination
[9] = Mus musculus, 72 hr, drug alone, read-out: IC50 (nM), Single
[10] = Mus musculus, read-out: Paclitaxel IC50 (nM), C4 combination, with 10 μM C4

T1 sequence (Q99661 216-598): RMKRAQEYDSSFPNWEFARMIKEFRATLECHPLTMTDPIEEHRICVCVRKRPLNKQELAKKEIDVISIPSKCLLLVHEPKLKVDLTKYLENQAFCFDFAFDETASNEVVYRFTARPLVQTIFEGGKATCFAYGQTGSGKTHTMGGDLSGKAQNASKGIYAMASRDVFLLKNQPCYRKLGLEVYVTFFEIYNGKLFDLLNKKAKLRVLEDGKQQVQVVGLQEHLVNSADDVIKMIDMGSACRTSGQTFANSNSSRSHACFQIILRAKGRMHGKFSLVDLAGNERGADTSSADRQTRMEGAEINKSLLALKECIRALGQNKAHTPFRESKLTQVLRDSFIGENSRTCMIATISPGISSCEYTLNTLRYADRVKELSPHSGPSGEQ
T3 sequence (O00139 181-562): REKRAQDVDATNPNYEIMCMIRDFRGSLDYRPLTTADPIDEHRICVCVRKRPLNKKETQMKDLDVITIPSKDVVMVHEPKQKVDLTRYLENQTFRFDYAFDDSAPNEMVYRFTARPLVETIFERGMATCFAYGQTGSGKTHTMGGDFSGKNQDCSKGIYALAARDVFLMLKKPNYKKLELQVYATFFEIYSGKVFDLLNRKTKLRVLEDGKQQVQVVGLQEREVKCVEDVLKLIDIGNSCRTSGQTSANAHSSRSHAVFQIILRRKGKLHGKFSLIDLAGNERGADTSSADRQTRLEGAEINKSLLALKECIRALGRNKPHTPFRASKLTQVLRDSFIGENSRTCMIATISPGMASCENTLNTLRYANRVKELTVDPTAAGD
T2 sequence (Q8N4N8 171-553): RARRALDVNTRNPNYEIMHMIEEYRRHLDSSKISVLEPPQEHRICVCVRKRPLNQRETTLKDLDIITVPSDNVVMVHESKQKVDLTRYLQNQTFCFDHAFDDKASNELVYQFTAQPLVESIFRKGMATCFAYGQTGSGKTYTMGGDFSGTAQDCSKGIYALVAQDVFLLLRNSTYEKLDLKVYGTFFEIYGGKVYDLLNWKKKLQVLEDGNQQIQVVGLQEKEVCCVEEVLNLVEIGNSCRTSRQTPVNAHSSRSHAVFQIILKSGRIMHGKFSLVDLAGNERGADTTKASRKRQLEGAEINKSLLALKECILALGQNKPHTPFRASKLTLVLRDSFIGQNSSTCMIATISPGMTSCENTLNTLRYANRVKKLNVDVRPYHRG

SMILES: CC1=C(C(=O)OC(C)C)C(c2ccc(Cl)cc2)n2c(s/c(=C\c3ccc(OCC(=O)O)cc3)c2=O)=N1 (stereo not drawn) [1S0 (1), reference compound]
inhibitory effect against KIF2C (in words) (KIF2C; 50 μM (FIG. 4I)): inhibited all three members of the kinesin-13 family | inhibition of KIF2C kinesin activity (in words) (KIF2C; 100 μM (FIG. 4B)): could inhibit KIF2C kinesin activity | EC50 (KIF2C; concentration that inhibits 50% of KIF2C activity): < 10 µM | inhibitory effect against KIF2B (in words) (KIF2B): inhibited all three members of the kinesin-13 family | intracellular microtubule distribution phenotype (in words) [1]: tubulin aggregation phenotype was not detected | cytotoxicity on MDA-MB-231 cells (in words) (MDA-MB-231 cells; 72 hr): not cytotoxic | IC50 (MDA-MB-231 cells; Homo sapiens, cytotoxicity in MDA-MB-231 cells): > 50 µM | cytotoxicity (in words) [2]: not cytotoxic | cell penetration, fluorescence signal at 510 nm emission (in words) (4T1 cells [3]): no fluorescence signals | inhibitory effect against KIF2A (in words) (KIF2A): inhibited all three members of the kinesin-13 family

IC50 (4T1 R4 cells; [8]): 6.4 nM | IC50 (4T1 R4 cells; [9]): 1540 nM | IC50 (4T1 R4 cells; [10]): 217 nM | IC50 (4T1 R8 cells; [8]): 6.1 nM | IC50 (4T1 R8 cells; [9]): 1120 nM | IC50 (4T1 R8 cells; [10]): 157 nM | IC50 (4T1 S1 cells [7]): 0.062 µM
SMILES: CC(=O)O[C@H]1C(=O)[C@@]2(C)[C@H]([C@H](OC(=O)c3ccccc3)[C@]3(O)C[C@H](OC(=O)[C@H](O)[C@@H](NC(=O)c4ccccc4)c4ccccc4)C(C)=C1C3(C)C)[C@]1(OC(C)=O)CO[C@@H]1C[C@@H]2O [Paclitaxel, paclitaxel]
cells died in mitosis (4T1 S1 cells [4]): Approximately 40% | tumor growth inhibition (4T1 R4): 41.7% | increase in chemoresistance (MDA-MB-231 R): 2.5 fold | tumor growth inhibition (4T1 cells [5]): 31.3% | intracellular microtubule distribution phenotype (in words) [1]: significant accumulation of bundled microtubules at the cell periphery | suppression of colony formation (4T1 S1 cells [6]): 80% | increase in chemoresistance (4T1 R cells): 11.8 fold
